Melting point data for one compound are collected here from patent US7297708B2, “Heteroaromatic substituted cyclopropane as corticotropin releasing hormone ligands” (Bristol-Myers Squibb Company, priority 2001, dated 2007).

The structures appear in SMILES notation.

Take `COc1ccccc1C1(c2ncc(C)c(-c3ccc(Cl)cc3Cl)n2)CC1` [Compound 11, 4-(2,4-Dichloro-phenyl)-2-[1-(2-methoxy-phenyl)-cyclopropyl]-5-methyl-pyrimidine]: the melting point (as a rule, the temperature of the solid-liquid transition) lay in the range of 46 to 48 °C.
